From ChEMBL document CHEMBL3407393, “Optimisation of LRRK2 inhibitors and assessment of functional efficacy in cell-based models of neuroinflammation” (Eur J Med Chem, 2015)
Calls of active or inactive are those of the source. The calls are words filed in the database; no cut-off is given here.

Assays:
[1] = molecular target: Leucine-rich repeat serine/threonine-protein kinase 2 (Homo sapiens, UniProt Q5S007, G2019S); experiment: Inhibition of LRRK2 G2019S mutant ([…]) (unknown origin) stably expressed in HEK293 cell lysate using [gamma-32P] after 15 mins by Cerenkov counting method; format: cell-free
[2] = (§1) Inhibition of IL6 secretion in LPS/IL-1beta-stimulated human primary microglia compound pretreated at 10 uM for 30 mins before stimulation measured after 24 hrs by ELISA; format: functional
[3] = Inhibition of IL6 secretion in LPS/IL-1beta-stimulated human U87 cells compound pretreated at 10 uM for 30 mins before stimulation measured after 24 hrs by ELISA; format: functional, U-87MG ATCC; conditions: U-87 MG
[4] = Inhibition of IL6 secretion in LPS/IL-1beta-stimulated human primary microglia compound pretreated for 30 mins before stimulation measured after 24 hrs by ELISA; format: functional
[5] = Inhibition of IL6 secretion in LPS/IL-1beta-stimulated human U87 cells compound pretreated for 30 mins before stimulation measured after 24 hrs by ELISA; format: functional, cell-based, U-87MG ATCC; conditions: U-87 MG
[6] = Biochemical index, ratio of IC50 for LRRK2 G2019S mutant (unknown origin) to EC50 for IL6 secretion in LPS/IL-1beta-stimulated human primary microglia
[7] = Oral bioavailability in mouse; format: ADME, organism-based; conditions: in vivo
Homo sapiens = species on record: Homo sapiens; experiment: as §1; format: functional

Leucine-rich repeat serine/threonine-protein kinase 2, sequence (Q5S007 whole entry G2019S): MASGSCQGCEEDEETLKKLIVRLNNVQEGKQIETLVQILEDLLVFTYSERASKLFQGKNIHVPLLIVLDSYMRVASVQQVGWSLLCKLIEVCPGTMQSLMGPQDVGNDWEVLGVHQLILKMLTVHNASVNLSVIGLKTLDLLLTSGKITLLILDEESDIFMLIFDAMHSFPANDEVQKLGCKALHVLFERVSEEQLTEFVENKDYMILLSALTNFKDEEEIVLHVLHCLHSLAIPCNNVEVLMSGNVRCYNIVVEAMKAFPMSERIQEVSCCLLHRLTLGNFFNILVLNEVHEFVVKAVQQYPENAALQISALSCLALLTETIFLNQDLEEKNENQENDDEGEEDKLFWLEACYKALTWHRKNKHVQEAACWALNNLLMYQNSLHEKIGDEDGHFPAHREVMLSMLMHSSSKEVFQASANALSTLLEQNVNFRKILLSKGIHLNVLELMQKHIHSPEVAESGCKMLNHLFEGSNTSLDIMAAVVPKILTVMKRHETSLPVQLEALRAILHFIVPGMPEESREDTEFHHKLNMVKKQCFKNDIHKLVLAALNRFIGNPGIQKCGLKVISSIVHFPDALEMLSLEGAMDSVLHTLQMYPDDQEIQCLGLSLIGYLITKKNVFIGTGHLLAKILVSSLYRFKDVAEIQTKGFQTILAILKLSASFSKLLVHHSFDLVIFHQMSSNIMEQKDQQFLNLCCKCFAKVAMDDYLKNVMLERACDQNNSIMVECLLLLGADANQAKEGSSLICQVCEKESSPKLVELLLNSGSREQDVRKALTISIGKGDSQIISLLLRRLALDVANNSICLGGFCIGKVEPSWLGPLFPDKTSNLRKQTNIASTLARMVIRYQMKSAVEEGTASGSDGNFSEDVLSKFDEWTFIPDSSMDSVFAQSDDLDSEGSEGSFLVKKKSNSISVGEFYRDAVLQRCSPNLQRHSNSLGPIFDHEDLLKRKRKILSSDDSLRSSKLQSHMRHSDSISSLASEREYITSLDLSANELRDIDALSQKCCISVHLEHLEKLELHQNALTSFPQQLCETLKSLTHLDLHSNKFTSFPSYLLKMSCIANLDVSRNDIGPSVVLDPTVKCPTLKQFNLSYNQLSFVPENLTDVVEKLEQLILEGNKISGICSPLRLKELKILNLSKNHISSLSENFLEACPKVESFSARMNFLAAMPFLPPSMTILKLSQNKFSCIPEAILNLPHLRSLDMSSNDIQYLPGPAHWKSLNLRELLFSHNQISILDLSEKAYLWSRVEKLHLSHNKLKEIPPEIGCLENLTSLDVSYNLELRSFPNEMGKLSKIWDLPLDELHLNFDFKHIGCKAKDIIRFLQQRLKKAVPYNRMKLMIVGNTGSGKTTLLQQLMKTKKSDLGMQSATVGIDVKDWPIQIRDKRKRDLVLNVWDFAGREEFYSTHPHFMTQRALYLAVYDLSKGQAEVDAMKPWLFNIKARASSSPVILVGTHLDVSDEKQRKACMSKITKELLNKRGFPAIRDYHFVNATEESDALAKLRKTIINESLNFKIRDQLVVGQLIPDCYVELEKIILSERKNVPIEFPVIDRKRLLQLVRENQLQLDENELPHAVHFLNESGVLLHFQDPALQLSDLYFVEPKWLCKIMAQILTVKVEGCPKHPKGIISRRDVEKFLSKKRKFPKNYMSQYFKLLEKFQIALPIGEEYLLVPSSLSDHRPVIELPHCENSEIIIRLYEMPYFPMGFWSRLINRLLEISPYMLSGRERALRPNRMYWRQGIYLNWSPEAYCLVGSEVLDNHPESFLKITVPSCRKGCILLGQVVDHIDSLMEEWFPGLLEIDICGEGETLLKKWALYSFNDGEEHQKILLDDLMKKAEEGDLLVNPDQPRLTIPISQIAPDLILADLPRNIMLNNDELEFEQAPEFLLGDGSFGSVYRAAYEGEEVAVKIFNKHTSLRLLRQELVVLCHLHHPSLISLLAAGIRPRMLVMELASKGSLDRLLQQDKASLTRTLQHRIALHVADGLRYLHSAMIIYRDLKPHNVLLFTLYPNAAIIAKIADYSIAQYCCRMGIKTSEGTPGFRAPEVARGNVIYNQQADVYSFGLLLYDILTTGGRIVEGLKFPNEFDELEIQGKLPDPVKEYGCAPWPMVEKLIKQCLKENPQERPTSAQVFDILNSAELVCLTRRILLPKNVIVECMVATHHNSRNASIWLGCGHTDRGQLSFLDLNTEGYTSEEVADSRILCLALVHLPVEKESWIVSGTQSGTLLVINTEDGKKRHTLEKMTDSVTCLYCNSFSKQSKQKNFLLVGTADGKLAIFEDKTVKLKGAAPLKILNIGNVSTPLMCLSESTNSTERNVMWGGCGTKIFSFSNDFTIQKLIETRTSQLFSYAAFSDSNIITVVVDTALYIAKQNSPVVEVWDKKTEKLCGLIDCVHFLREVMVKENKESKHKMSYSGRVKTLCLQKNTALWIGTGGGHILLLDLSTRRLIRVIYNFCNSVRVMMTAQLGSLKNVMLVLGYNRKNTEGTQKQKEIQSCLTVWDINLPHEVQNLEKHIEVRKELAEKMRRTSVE

Row | SMILES | IC50 [1] [nM] | inhibition at 10 µM [2] [%] | inhibition at 10 µM [3] [%] | EC50 [4] [nM] | EC50 [5] [nM] | Ratio IC50/EC50 [6] | bioavailability [7] [%] | inhibition (Homo sapiens)
1 | Nc1ccc(C(=O)N2CCC(N3CCCCC3)CC2)cc1Cl | 654 | 16.9 | 49.9 | – | – | – | – | –
2 | O=C(c1ccc(NCc2ccc([N+](=O)[O-])cc2)c(Cl)c1)N1CCC(N2CCCCC2)CC1 | > 1000 | 56.3 | 56.4 | – | – | – | – | –
3 | CCCNc1ccc(C(=O)N2CCC(N3CCCCC3)CC2)cc1Cl | > 1000 | 47.6 | 55.8 | – | – | – | – | –
4 | O=C(c1ccc(Nc2cccnc2)c(Cl)c1)N1CCC(N2CCCCC2)CC1 | > 1000 | 36.3 | 46.6 | – | – | – | – | –
5 | CN1Cc2ccccc2N(C)c2nc(Nc3ccc(C(=O)N4CCC(N5CCCCC5)CC4)cc3Cl)ncc21 | 51.2 | 70 | 58.8 | – | – | – | – | –
6 | CN1Cc2ccccc2N(C)c2nc(Cl)ncc21 | > 1000 | 6.3 | 64.6 | – | – | – | – | –
7 | COc1cc(C(=O)N2CCC(N3CCN(C)CC3)CC2)ccc1Nc1ncc2c(n1)N(C)c1ccccc1C(=O)N2C | 7.9 | 95 | 94.1 | 830 | 660 | 0.009 | 49.3 | –
8 | O=C(c1ccc(Nc2cncnc2)c(Cl)c1)N1CCC(N2CCCCC2)CC1 | > 1000 | – | 40.7 | – | – | – | – | –
9 | O=C(c1ccc(Nc2ccc([N+](=O)[O-])cc2)c(Cl)c1)N1CCC(N2CCCCC2)CC1 | > 1000 | 53.6 | 47.9 | – | – | – | – | –
10 | Cn1cccc1CNc1ccc(C(=O)N2CCC(N3CCCCC3)CC2)cc1Cl | > 1000 | 17.3 | 42.4 | – | – | – | – | –
11 | CN1C(=O)c2ccccc2N(C)c2nc(Cl)ncc21 | > 1000 | 18 | 23.2 | – | – | – | – | –
12 | Cc1ccc(Nc2ccc(C(=O)N3CCC(N4CCCCC4)CC3)cc2Cl)cc1 | > 1000 | 29.7 | 37.8 | – | – | – | – | –
13 | O=C(c1ccc(NC2CCCCC2)c(Cl)c1)N1CCC(N2CCCCC2)CC1 | > 1000 | 82.4 | 54.2 | – | – | – | – | –
14 | O=C(c1ccc(Nc2ccccn2)c(Cl)c1)N1CCC(N2CCCCC2)CC1 | > 1000 | 7.3 | 46.7 | – | – | – | – | –
15 | O=C(c1ccc(NCc2ccccc2)c(Cl)c1)N1CCC(N2CCCCC2)CC1 | > 1000 | 65.3 | 62.6 | – | – | – | – | –
16 | CN1C(=O)c2ccccc2N(C)c2nc(Nc3ccc(C(=O)N4CCC(N5CCCCC5)CC4)cc3Cl)ncc21 | 72 | 81.3 | 87.9 | 4260 | 3680 | 0.017 | – | –
17 | Cc1ccc(CNc2ccc(C(=O)N3CCC(N4CCCCC4)CC3)cc2Cl)cc1 | > 1000 | 42 | 36.1 | – | – | – | – | –
18 | O=C(Nc1ccc(C(=O)N2CCC(N3CCCCC3)CC2)cc1Cl)c1ccc[nH]1 | > 1000 | – | 51.9 | – | – | – | – | inactive
19 | COc1ccccc1Nc1ccc(C(=O)N2CCC(N3CCCCC3)CC2)cc1Cl | > 1000 | 56.6 | 58.6 | – | – | – | – | –
20 | COc1cccc(Nc2ccc(C(=O)N3CCC(N4CCCCC4)CC3)cc2Cl)c1 | > 1000 | 53 | 47.8 | – | – | – | – | –
21 | O=C(c1ccc(Nc2ccccc2[N+](=O)[O-])c(Cl)c1)N1CCC(N2CCCCC2)CC1 | > 1000 | 65.4 | 45.6 | – | – | – | – | –
22 | COc1cccc(CNc2ccc(C(=O)N3CCC(N4CCCCC4)CC3)cc2Cl)c1 | > 1000 | 52.9 | 52 | – | – | – | – | –
23 | O=C(c1ccc(Nc2ncccn2)c(Cl)c1)N1CCC(N2CCCCC2)CC1 | > 1000 | 46.4 | 39.3 | – | – | – | – | –
24 | O=C(c1ccc(Nc2ccccc2)c(Cl)c1)N1CCC(N2CCCCC2)CC1 | > 1000 | 44.7 | 32.3 | – | – | – | – | –
25 | CC(=O)Nc1ccc(Nc2ccc(C(=O)N3CCC(N4CCCCC4)CC3)cc2Cl)cc1 | > 1000 | 31.8 | 36.1 | – | – | – | – | –
